Measured values taken from patent publication US12458614B2, “Therapeutic agents for improved mobility and cognitive function and for treating neurodegenerative diseases and lysosomal storage disorders” (priority 2017, dated 2025).

Assays:
[1] = system: Mucopolysaccharidosis Type VII (MPS VII) patient fibroblasts; assay: Lysosomal volume via LysoTracker; type: cell-based, human; settings: 1 mM, 6 days
[2] = system: patients with ataxia telangiectasia; assay: Case studies, ataxia telangiectasia (SARA, SCAFI, video-oculography); type: in vivo, human
Excerpt: For example, to evaluate overall neurological status, mDRS, a four-domain scale (ambulation, manipulation, language and swallowing), may be applied. Cerebellar function may be evaluated using SARA, an eight-item clinical rating scale (gait, stance, sitting, speech, fine motor function and taxis; range 0-40, where 0 is the best neurological status and 40 the worst), and SCAFI, comprising the 8-m-Walking-Time (8MW; performed by having patients walking twice as quickly as possible from one line to another excluding turning), 9-Hole-Peg-Test (9HPT) and the number of “PATA” repetitions over 10 s. Subjective impairment and quality of life may be evaluated using the EQ-5D-5L questionnaire and VAS. To assess ocular motor function, 3-dimensional videooculography (EyeSeeCam) may be used to measure the peak velocity of saccades, gain of smooth pursuit, peak slow phase velocity of gaze-evoked nystagmus (gaze-holding function), peak slow phase velocity of optokinetic nystagmus, and gain of horizontal vestibulo-ocular reflex. To evaluate the cognitive state, WAIS-R or WISC-IV, and MoCA, assessing different cognitive domains, including attention and concentration, executive functions, memory, language, visuoconstructional skills, conceptual thinking, calculations, and orientation with a maximum of 30 points and a cut-off score of 26, may be used. The skilled person will know how to perform these and other such tests.
After one month of treatment, the patient was re-evaluated. […] Examination indicated a Scale for Assessment and Rating of Ataxia (SARA) score of 15.5/40. Results from the patient's Spinocerebellar Ataxia Functional Index (SCAFI) analysis were: • Mean 8-meters Walking Test (8MW): 18.5 s • MW 9-Hole Pegboard Test Dominant (9HPTD) (right): 77.9 s • MW 9-Hole Pegboard Test Non-Dominant (9HPTND): 101.3 s • MW PATA Word Test: 13 • Visual analog scale (as evaluated by the patient): 85
After one month of treatment, the patient was re-evaluated. […] Examination indicated a Scale for Assessment and Rating of Ataxia (SARA) score of 23.5/40.
After slightly over 7 months of treatment, the patient was re-evaluated. […] Examination indicated a Scale for Assessment and Rating of Ataxia (SARA) score of 21.5/40.
After slightly over 1 month of treatment, the patient was re-evaluated. […] The patient also reported that drinking was easier and no longer needed a straw. […] Examination indicated a Scale for Assessment and Rating of Ataxia (SARA) score of 18.5/40.
After about 1 month of treatment, the patient was re-evaluated. […] On medication, they were able to walk with only holding the caregiver's hand.
The patient was evaluated after one month and six months of treatment, respectively. […] The patient, however, was suffering from anxiety, which would be expected to negatively influence the response.

[3] = system: patient with spinocerebellar ataxia 28 (SCA 28); assay: Case study, spinocerebellar ataxia 28; type: in vivo, human; settings: SCA 28 patient, about one month, 5 g per day
Method: A gait analysis was performed before treatment commenced. After about one month of treatment, medication was stopped and the patient was evaluated. […] The patient reported that they no longer walked like a robot and could climb the stairs without using the banisters.

[4] = system: patient with GM1 Gangliosidosis; assay: Case study, GM1 Gangliosidosis; type: in vivo, human; settings: after one month, 1.5 g then 3 g per day
Excerpt: For example, to evaluate overall neurological status, mDRS, a four-domain scale (ambulation, manipulation, language and swallowing), may be applied. Cerebellar function may be evaluated using SARA, an eight-item clinical rating scale (gait, stance, sitting, speech, fine motor function and taxis; range 0-40, where 0 is the best neurological status and 40 the worst), and SCAFI, comprising the 8-m-Walking-Time (8MW; performed by having patients walking twice as quickly as possible from one line to another excluding turning), 9-Hole-Peg-Test (9HPT) and the number of “PATA” repetitions over 10 s. Subjective impairment and quality of life may be evaluated using the EQ-5D-5L questionnaire and VAS. To assess ocular motor function, 3-dimensional videooculography (EyeSeeCam) may be used to measure the peak velocity of saccades, gain of smooth pursuit, peak slow phase velocity of gaze-evoked nystagmus (gaze-holding function), peak slow phase velocity of optokinetic nystagmus, and gain of horizontal vestibulo-ocular reflex. To evaluate the cognitive state, WAIS-R or WISC-IV, and MoCA, assessing different cognitive domains, including attention and concentration, executive functions, memory, language, visuoconstructional skills, conceptual thinking, calculations, and orientation with a maximum of 30 points and a cut-off score of 26, may be used. […]

[5] = system: NPC patients; assay: Clinical severity score (CSS) and annual severity increment score (ASIS) in ten NPC patients; type: in vivo, human; settings: 4.5 g/day
Excerpt: An NPC patient's severity may be quantified by assigning a clinical severity score (CSS), which assesses various parameters of the disease and gives each parameter a score out of 5 (higher score=greater severity). See Yanjanin et al., “Linear Clinical Progression, Independent of Age of Onset, in Niemann-Pick Disease, Type C,” Am J Med Genet Part B 153B:132-140. In an untreated patient, one can typically predict how the CSS will change over time in an individual, as disease progression appears to be linear. For example, if Patient A moves from a CSS of 8 to a CSS of 12 between month 0 and month 12, it can be predicted that by month 36, the patient will have a CSS of 20. The annual severity increment score (ASIS) quantities the annual rate of change in the CSS, calculated by dividing the CSS of a patient by the patient's age. […]
Ten NPC patients were administered acetyl-leucine at 4.5 g/day over long durations. A CSS was determined at baseline, and at various time points, for eye movement, ambulation, speech, swallow, fine motor skills, cognition, memory, and seizures. An overall CSS was calculated at baseline and at each such time point by adding the individual CSS values for each parameter (eye movement, ambulation, etc.).
The ASIS at baseline and each time point was calculated using each patient's CSS and age at the time of assessment. […]

[6] = system: person with progressive postural imbalance; assay: Case study Example 22, get up and go test and cognition; type: in vivo, human
Method: Treatment with acetyl-DL-leucine (Tanganil®) was started because the patient was suffering from imbalance and gait disorder. They initiated a one-month course comprising nine 500 mg tablets taken three times a day (TID) with meals, i.e., a total daily dosage of 4.5 g.
The ability of the subject to move was measured in a home setting “get up and go test”. This test involved the subject rising unaided from their chair and walking the length of their living area to their kitchen. This was timed over seven consecutive days prior to treatment, and over the next seven consecutive days once treatment with Tanganil® had started.
The same subject then initiated another month of treatment, i.e. a further one-month course comprising nine 500 mg capsules taken TID with meals (total daily dosage of 4.5 g).

[7] = A-T Patient 3, after slightly over 7 months
[8] = A-T Patient 4, after slightly over 1 month
[9] = A-T Patient 5, after about 1 month
[10] = A-T Patient 5, after almost 7 months

In the case of CC(=O)NC(CC(C)C)C(=O)O (racemic) [acetyl-DL-leucine], the “LysoTracker fluorescence vs untreated disease fibroblasts” value [1] is reported as “trend in reducing LysoTracker fluorescence toward control level”, the “Video-oculography (summary)” value ([2]; A-T Patient 1, after one month) is reported as “significant improvement of fixation stability and decrease of intensity of downbeat-nystagmus” and the Caregiver report ([2]; A-T Patient 1, after one month, 5 g/day) is reported as “improvement of speech and gait”. The “9-Hole Pegboard Test Dominant (9HPTD)” value ([2]; A-T Patient 2, after one month) was 300 s, the “Mean 8-meters Walking Test (8MW)” value ([2]; A-T Patient 2, after one month) was “not able to perform without support” and the “Video-oculography (summary)” value ([2]; A-T Patient 2, after one month) was “improvement of fixation stability and significant improvement of downbeat-nystagmus intensity”. For the same compound, the Caregiver report ([2]; A-T Patient 2, after one month, 5 g/day) was “improvement of fine motor function, hand tremor, and speech”, the “Mean 8-meters Walking Test (8MW)” value [2, 7] was “not able to perform” and the “Video-oculography (summary)” value [2, 7] was “significant improvement of fixation stability and decrease of intensity of gaze-holding nystagmus at all positions”. For the same compound, the “Caregiver and patient report” value ([2]; A-T Patient 3, after slightly over 7 months, 5 g/day) was “general improvement of well-being”, the “Mean 8-meters Walking Test (8MW)” value [2, 8] was “not able to perform” and the “Video-oculography (summary)” value [2, 8] was “general improvement of fixation stability and decrease of intensity of spontaneous and gaze-holding nystagmus at all positions”. For the same compound, the “Patient and family report” value ([2]; A-T Patient 4, after slightly over 1 month, 5 g/day) was “improvement in handwriting”, the Body weight gained [2, 9] was 1.5 kg and the “Mean 8-meters Walking Test (8MW)” value [2, 9] was “not able to walk without support”. The “Gait (reported by parent)” value ([2]; A-T Patient 5, after about 1 month, 5 g/day) was “significant improvement of stability of the gait”, the “Further body weight gained” value [2, 10] was 3 kg and the “Gait (reported by parent)” value [2, 10] was “significantly more stable gait”. The Clinical re-evaluation ([2]; A-T Patient 5, after slightly over a year) was “improved social interaction, activity, and agility”, the Adverse observation ([2]; A-T Patient 5, after slightly over a year, suspected infantile migraine) was “repeatedly occurring frontal localized pain with vomiting in the morning” and the Clinical evaluation ([2]; A-T Patient 6, after one month, 1.5 g/day then 3 g/day) was “increased fine motor skills with reduced hand tremor”. The Clinical evaluation ([2]; A-T Patient 6, after six months) was “stable general conditions, stable gait and stance, and improved handwriting”, the “Symptomatology (patient report)” value [3] was “improvement of the symptomatology, in particular reduced dizziness” and the Clinical re-examination [4] was “stable general condition, increased gait (more fluent), and stable stance in natural position”. The “Change in ASIS during treatment relative to baseline” value [5] was “all ten patients showed a reduction in ASIS”, the “Change in overall CSS over the course of the experiment” value [5] was “none of the ten patients showed an overall increase in CSS” and the “Cognitive function (noticed by family)” value ([6]; after 2-3 weeks of treatment) was “significant improvement in their cognitive function, spatial awareness and general demeanor”. For the same compound, the “Faster than pre-treatment, get up and go test” value ([6]; on treatment, 4.5 g daily) was 25%, the “Average time, get up and go test” value ([6]; once treatment had started, 4.5 g daily, 40±3 prior to treatment) was 30 ± 2 s and the Side effects ([6]; over eighteen months, 4.5 g per day) was “no side effects”. The “Improvements on second treatment” value ([6]; second one-month course, 4.5 g daily) was “rapidly returned”.
